Results taken from patent US20260193264A1, “BENZOYPARAZINE PYRAZINES AND THEIR USES” (FOGHORN THERAPEUTICS INC., priority 2022, published 2026).

What was measured:
[1] = biological target: T1, HiBiT-BRM fusion protein in stable HeLa cell line (Homo sapiens, UniProt P51531); experiment: HiBiT-BRM cell-based degradation assay (Nano-Glo HiBiT Lytic Detection, 24 h); set-up: DC50: scale not given here; details: HeLa HiBiT-BRM cells; for DC50: read-out: BRM HiBit Degradation IC50; for BRM HiBit Degradation Maximum (%): top dose 30 μM
T1 construct: expressed in transfected cells
T1 sequence (P51531 whole entry, the tested form may be a part): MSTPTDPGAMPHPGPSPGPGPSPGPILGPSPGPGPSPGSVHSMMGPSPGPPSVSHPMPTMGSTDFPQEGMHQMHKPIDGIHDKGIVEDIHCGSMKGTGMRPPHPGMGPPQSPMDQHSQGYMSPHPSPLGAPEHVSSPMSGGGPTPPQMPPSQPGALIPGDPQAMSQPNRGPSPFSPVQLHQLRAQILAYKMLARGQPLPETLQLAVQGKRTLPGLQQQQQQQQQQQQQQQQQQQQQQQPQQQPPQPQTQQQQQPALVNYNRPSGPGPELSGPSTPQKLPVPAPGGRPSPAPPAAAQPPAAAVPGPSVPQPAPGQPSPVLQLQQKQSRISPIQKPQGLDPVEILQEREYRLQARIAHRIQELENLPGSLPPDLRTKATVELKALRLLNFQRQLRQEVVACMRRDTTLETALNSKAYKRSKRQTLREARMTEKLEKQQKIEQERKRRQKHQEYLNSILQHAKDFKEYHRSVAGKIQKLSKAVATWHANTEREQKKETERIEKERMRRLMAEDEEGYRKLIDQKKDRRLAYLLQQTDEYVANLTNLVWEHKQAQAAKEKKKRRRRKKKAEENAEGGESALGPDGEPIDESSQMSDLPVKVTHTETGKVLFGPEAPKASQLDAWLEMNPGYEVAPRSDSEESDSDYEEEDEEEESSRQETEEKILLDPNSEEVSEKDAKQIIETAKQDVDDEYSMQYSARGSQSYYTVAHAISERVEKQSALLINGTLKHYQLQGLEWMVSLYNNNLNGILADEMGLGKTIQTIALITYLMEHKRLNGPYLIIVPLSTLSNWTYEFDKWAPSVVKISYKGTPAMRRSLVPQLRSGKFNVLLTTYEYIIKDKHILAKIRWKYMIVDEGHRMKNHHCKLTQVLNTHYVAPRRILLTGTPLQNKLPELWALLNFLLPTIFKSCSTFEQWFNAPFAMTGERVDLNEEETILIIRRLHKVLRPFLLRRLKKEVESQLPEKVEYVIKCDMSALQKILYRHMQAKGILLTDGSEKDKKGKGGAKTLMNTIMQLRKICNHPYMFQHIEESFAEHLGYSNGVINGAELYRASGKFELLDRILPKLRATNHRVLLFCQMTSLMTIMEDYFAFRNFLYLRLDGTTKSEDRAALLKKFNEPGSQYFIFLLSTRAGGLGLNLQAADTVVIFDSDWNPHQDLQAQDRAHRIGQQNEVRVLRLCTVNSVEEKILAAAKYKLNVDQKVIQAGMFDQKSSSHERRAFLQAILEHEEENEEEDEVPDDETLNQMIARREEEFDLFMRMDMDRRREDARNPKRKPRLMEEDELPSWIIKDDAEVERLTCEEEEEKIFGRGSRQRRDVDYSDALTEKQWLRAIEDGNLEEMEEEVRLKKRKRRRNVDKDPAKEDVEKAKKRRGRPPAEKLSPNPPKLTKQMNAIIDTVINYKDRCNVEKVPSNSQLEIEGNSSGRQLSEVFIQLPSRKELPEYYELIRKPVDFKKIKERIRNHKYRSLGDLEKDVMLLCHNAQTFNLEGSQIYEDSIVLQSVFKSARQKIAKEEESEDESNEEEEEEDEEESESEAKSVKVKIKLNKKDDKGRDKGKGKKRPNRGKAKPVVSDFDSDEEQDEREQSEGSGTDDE
In short: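 Percent degradation was scaled between DMSO-treated cells and cells given 2 μM of a known BRM/BRG1 degrader. Readout was NanoBiT luminescence after lytic detection. HeLa cells stably expressing HiBiT-BRM were dosed for 24 h, 10 points, 3-fold steps from 30 μM final, in duplicate.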

[2] = biological target: T2, HiBit-BRG1 fusion protein in stable HeLa cell line expressing HiBit-BRG1 and LgBit (Homo sapiens, UniProt P51532); experiment: HiBiT-BRG1 cell-based degradation assay (Nano-Glo HiBiT, 24 h); details: HeLa HiBit-BRG1/LgBit cells; for Dmax: top dose 30 μM, read-out: BRG1 HiBit Degradation Maximum (%); for DC50: read-out: BRMG1 HiBit Degradation IC50
T2 construct: expressed in transfected cells
T2 sequence (P51532 whole entry, the tested form may be a part): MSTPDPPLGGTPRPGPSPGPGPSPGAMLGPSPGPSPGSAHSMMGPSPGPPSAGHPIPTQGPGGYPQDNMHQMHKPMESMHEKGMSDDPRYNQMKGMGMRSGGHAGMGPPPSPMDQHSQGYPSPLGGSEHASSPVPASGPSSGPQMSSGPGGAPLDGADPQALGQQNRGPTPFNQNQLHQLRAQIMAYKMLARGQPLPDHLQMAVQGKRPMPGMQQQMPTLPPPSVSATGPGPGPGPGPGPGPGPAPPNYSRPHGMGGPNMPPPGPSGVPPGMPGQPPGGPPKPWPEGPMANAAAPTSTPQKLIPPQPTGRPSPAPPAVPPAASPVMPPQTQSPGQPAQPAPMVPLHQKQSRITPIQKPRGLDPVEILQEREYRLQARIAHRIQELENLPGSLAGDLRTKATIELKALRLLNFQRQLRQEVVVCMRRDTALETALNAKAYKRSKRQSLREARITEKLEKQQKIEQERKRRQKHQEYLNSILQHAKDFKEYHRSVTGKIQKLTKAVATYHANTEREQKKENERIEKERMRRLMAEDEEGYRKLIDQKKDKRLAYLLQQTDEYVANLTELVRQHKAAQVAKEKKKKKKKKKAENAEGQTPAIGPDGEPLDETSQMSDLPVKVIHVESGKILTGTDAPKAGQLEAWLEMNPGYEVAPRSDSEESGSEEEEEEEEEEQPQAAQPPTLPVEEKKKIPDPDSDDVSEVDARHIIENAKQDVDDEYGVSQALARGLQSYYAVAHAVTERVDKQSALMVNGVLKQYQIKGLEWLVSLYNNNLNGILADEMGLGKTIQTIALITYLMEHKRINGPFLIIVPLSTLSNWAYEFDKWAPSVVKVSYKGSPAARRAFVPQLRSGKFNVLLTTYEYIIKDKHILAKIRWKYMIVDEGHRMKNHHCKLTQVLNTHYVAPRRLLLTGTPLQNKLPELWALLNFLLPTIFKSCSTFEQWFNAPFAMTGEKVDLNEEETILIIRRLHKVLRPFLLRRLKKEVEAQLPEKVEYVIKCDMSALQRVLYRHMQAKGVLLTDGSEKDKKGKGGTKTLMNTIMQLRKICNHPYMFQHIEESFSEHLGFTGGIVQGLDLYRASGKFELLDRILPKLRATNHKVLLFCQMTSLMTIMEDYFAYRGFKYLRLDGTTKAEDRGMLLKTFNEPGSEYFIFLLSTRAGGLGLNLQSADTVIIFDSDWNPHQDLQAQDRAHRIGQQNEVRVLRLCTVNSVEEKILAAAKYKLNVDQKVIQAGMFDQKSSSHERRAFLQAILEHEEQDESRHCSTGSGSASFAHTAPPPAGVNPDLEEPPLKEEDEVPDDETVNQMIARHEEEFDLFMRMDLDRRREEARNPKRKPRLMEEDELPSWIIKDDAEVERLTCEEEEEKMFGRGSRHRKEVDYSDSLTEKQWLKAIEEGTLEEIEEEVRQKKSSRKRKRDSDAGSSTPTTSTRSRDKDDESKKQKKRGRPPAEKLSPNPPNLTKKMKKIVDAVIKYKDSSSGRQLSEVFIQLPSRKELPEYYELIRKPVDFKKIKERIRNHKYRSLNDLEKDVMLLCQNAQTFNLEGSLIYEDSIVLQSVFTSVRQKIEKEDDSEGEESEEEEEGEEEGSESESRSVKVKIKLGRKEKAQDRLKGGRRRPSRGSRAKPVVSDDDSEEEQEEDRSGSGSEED
In short: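 Degradation calculated from NanoBiT luminescence relative to DMSO-treated cells (high) and cells given 2 μM known BRM/BRG1 degrader (low). HeLa cells stably expressing HiBiT-BRG1 plus LgBiT were exposed to compound for 24 h before lytic HiBiT detection.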

| SMILES | DC50 [1] [nM] | Dmax [2] [%] | DC50 [2] [nM] | BRM HiBit Degradation Maximum (%) [1] |
| --- | --- | --- | --- | --- |
| Cc1ncsc1-c1ccc([C@H](C)NC(=O)[C@@H]2C[C@@H](O)CN2C(=O)[C@@H](c2cc(N3CCC4(CC3)CC(c3ccc5cc(-c6cc(F)cc(F)c6O)nnc5c3)C4)no2)C(C)C)cc1 [Compound 82, (2S,4R)-1-((R)-2-(3-(2-(3-(3,5-difluoro-2-hydroxyphenyl)cinnolin-7-yl)-7-azaspiro[3.5]nonan-7-yl)isoxazol-5-yl)-3-methylbutanoyl)-4-hydroxy-N-((S)-1-(4-(4-methylthiazol-5-yl)phenyl)ethyl)pyrrolidine-2-carboxamide] | < 10 | < 50 |  | A (“A” indicates maximum degradation ≥75%) |
| Cc1ncsc1-c1ccc([C@H](C)NC(=O)[C@@H]2C[C@@H](O)CN2C(=O)[C@@H](c2cc(N3CCC4(CCN(c5ccc6cc(-c7ccccc7O)nnc6c5)C4)CC3)no2)C(C)C)cc1 [Compound 83, (2S,4R)-4-hydroxy-1-((R)-2-(3-(2-(3-(2-hydroxyphenyl)cinnolin-7-yl)-2,8-diazaspiro [4.5]decan-8-yl)isoxazol-5-yl)-3-methylbutanoyl)-N-((S)-1-(4-(4-methylthiazol-5-yl)phenyl)ethyl)pyrrolidine-2-carboxamide] | < 10 | > 75 | > 10 | A (“A” indicates maximum degradation ≥75%) |
| CC(C)[C@@H](C(=O)N1C[C@H](O)C[C@H]1C(=O)N[C@@H](C)c1ccccc1)c1cc(N2CC3(CN(c4ccc5cc(-c6ccccc6O)nnc5c4)C3)C2)no1 [Compound 85, (2S,4R)-4-hydroxy-1-((R)-2-(3-(6-(3-(2-hydroxyphenyl)cinnolin-7-yl)-2,6-diazaspiro[3.3]heptan-2-yl)isoxazol-5-yl)-3-methylbutanoyl)-N-((S)-1-phenylethyl)pyrrolidine-2-carboxamide] | < 10 | < 50 |  | A (“A” indicates maximum degradation ≥75%) |
| Cc1cc(-c2cc([C@H](C(=O)N3C[C@H](O)C[C@H]3C(=O)N[C@@H](C)c3ccc(-c4scnc4C)cc3)C(C)C)on2)cnc1N1CCC(c2ccc3cc(-c4ccccc4O)nnc3c2)CC1 [Compound 88, (2S,4R)-4-hydroxy-1-((R)-2-(3-(6-(4-(3-(2-hydroxyphenyl)cinnolin-7-yl)piperidin-1-yl)-5-methylpyridin-3-yl)isoxazol-5-yl)-3-methylbutanoyl)-N-((S)-1-(4-(4-methylthiazol-5-yl)phenyl)ethyl)pyrrolidine-2-carboxamide] | < 10 | < 50 |  | A (“A” indicates maximum degradation ≥75%) |
| CC(C)[C@@H](C(=O)N1C[C@H](O)C[C@H]1C(=O)N[C@@H](C)c1ccc(F)cc1)c1cc(N2CC3(CN(c4ccc5cc(-c6ccccc6O)nnc5c4)C3)C2)no1 [Compound 89, (2S,4R)-N-((S)-1-(4-fluorophenyl)ethyl)-4-hydroxy-1-((R)-2-(3-(6-(3-(2-hydroxyphenyl)cinnolin-7-yl)-2,6-diazaspiro[3.3]heptan-2-yl)isoxazol-5-yl)-3-methylbutanoyl)pyrrolidine-2-carboxamide] | < 10 | < 50 |  | A (“A” indicates maximum degradation ≥75%) |
| Cc1ncsc1-c1ccc([C@H](C)NC(=O)[C@@H]2C[C@@H](O)CN2C(=O)[C@@H](c2cc(N3CCC4(CC3)CC(c3ccc5cc(-c6cccc(F)c6O)nnc5c3)C4)no2)C(C)C)cc1 [Compound 94, (2S,4R)-1-((R)-2-(3-(2-(3-(3-fluoro-2-hydroxyphenyl)cinnolin-7-yl)-7-azaspiro[3.5]nonan-7-yl)isoxazol-5-yl)-3-methylbutanoyl)-4-hydroxy-N-((S)-1-(4-(4-methylthiazol-5-yl)phenyl)ethyl)pyrrolidine-2-carboxamide] | < 10 | < 50 |  | A (“A” indicates maximum degradation ≥75%) |
| Cc1ncsc1-c1ccc([C@H](C)NC(=O)[C@@H]2C[C@@H](O)CN2C(=O)[C@@H](c2cc(N3CC4(CCN(c5ccc6cc(-c7ccccc7O)nnc6c5)CC4)C3)no2)C(C)C)cc1 [Compound 95, (2S,4R)-4-hydroxy-1-((R)-2-(3-(7-(3-(2-hydroxyphenyl)cinnolin-7-yl)-2,7-diazaspiro[3.5]nonan-2-yl)isoxazol-5-yl)-3-methylbutanoyl)-N-((S)-1-(4-(4-methylthiazol-5-yl)phenyl)ethyl)pyrrolidine-2-carboxamide] | < 10 | > 75 | < 10 | A (“A” indicates maximum degradation ≥75%) |

Now from value to molecule, other results behind:

| DC50 [1] [nM] | Dmax [2] [%] | DC50 [2] [nM] | SMILES | BRM HiBit Degradation Maximum (%) [1] |
| --- | --- | --- | --- | --- |
| < 10 | > 50 | > 10 | Cc1ncsc1-c1ccc([C@H](C)NC(=O)[C@@H]2C[C@@H](O)CN2C(=O)[C@@H](c2cc(N3CC4(CC(Oc5ccc6cc(-c7ccccc7O)nnc6c5)C4)C3)no2)C(C)C)cc1 [Compound 84, (2S,4R)-4-hydroxy-1-((R)-2-(3-(6-((3-(2-hydroxyphenyl)cinnolin-7-yl)oxy)-2-azaspiro[3.3]heptan-2-yl)isoxazol-5-yl)-3-methylbutanoyl)-N-((S)-1-(4-(4-methylthiazol-5-yl)phenyl)ethyl)pyrrolidine-2-carboxamide] | A (“A” indicates maximum degradation ≥75%) |
| < 10 | < 50 |  | Cc1ncsc1-c1ccc([C@H](C)NC(=O)[C@@H]2C[C@@H](O)CN2C(=O)[C@@H](c2cc(N3C[C@@H]4[C@H](C3)[C@H]4c3ccc4nnc(-c5ccccc5O)cc4c3)no2)C(C)C)cc1 [Compound 86, (2S,4R)-4-hydroxy-1-((R)-2-(3-((1R,5S,6S)-6-(3-(2-hydroxyphenyl)cinnolin-6-yl)-3-azabicyclo[3.1.0]hexan-3-yl)isoxazol-5-yl)-3-methylbutanoyl)-N-((S)-1-(4-(4-methylthiazol-5-yl)phenyl)ethyl)pyrrolidine-2-carboxamide] | A (“A” indicates maximum degradation ≥75%) |
| < 10 | > 75 | < 10 | Cc1ncsc1-c1ccc([C@H](C)NC(=O)[C@@H]2C[C@@H](O)CN2C(=O)[C@@H](c2cc(N3CC4(CCC(c5ccc6cc(-c7ccccc7O)nnc6c5)CC4)C3)no2)C(C)C)cc1 [Compound 87, (2S,4R)-4-hydroxy-1-((R)-2-(3-(7-(3-(2-hydroxyphenyl)cinnolin-7-yl)-2-azaspiro[3.5]nonan-2-yl)isoxazol-5-yl)-3-methylbutanoyl)-N-((S)-1-(4-(4-methylthiazol-5-yl)phenyl)ethyl)pyrrolidine-2-carboxamide] | A (“A” indicates maximum degradation ≥75%) |
| < 10 | > 75 | < 10 | Cc1ncsc1-c1ccc([C@H](C)NC(=O)[C@@H]2C[C@@H](O)CN2C(=O)[C@@H](c2cc(N3CCC[C@H](c4ccc5cc(-c6ccccc6O)nnc5c4)C3)no2)C(C)C)cc1 [Compound 90, (2S,4R)-4-hydroxy-1-((R)-2-(3-((R)-3-(3-(2-hydroxyphenyl)cinnolin-7-yl)piperidin-1-yl)isoxazol-5-yl)-3-methylbutanoyl)-N-((S)-1-(4-(4-methylthiazol-5-yl)phenyl)ethyl)pyrrolidine-2-carboxamide] | A (“A” indicates maximum degradation ≥75%) |
| < 10 | > 75 | < 10 | Cc1ncsc1-c1ccc([C@H](C)NC(=O)[C@@H]2C[C@@H](O)CN2C(=O)[C@@H](c2cc(N3CCC[C@@H](c4ccc5cc(-c6ccccc6O)nnc5c4)C3)no2)C(C)C)cc1 [Compound 91, (2S,4R)-4-hydroxy-1-((R)-2-(3-((S)-3-(3-(2-hydroxyphenyl)cinnolin-7-yl)piperidin-1-yl)isoxazol-5-yl)-3-methylbutanoyl)-N-((S)-1-(4-(4-methylthiazol-5-yl)phenyl)ethyl)pyrrolidine-2-carboxamide] | A (“A” indicates maximum degradation ≥75%) |
| < 10 | > 75 | > 10 | Cc1ncsc1-c1ccc([C@H](C)NC(=O)[C@@H]2C[C@@H](O)CN2C(=O)[C@@H](c2cc(N3CCC4(CC[C@H](c5ccc6cc(-c7ccccc7O)nnc6c5)C4)CC3)no2)C(C)C)cc1 [Compound 92, (2S,4R)-4-hydroxy-1-((R)-2-(3-((S)-2-(3-(2-hydroxyphenyl)cinnolin-7-yl)-8-azaspiro[4.5]decan-8-yl)isoxazol-5-yl)-3-methylbutanoyl)-N-((S)-1-(4-(4-methylthiazol-5-yl)phenyl)ethyl)pyrrolidine-2-carboxamide] | A (“A” indicates maximum degradation ≥75%) |
| < 10 | < 50 |  | Cc1ncsc1-c1ccc([C@H](C)NC(=O)[C@@H]2C[C@@H](O)CN2C(=O)[C@@H](c2cc(N3CCC4(CC[C@@H](c5ccc6cc(-c7ccccc7O)nnc6c5)C4)CC3)no2)C(C)C)cc1 [Compound 93, (2S,4R)-4-hydroxy-1-((R)-2-(3-((R)-2-(3-(2-hydroxyphenyl)cinnolin-7-yl)-8-azaspiro[4.5]decan-8-yl)isoxazol-5-yl)-3-methylbutanoyl)-N-((S)-1-(4-(4-methylthiazol-5-yl)phenyl)ethyl)pyrrolidine-2-carboxamide] | A (“A” indicates maximum degradation ≥75%) |
